Test results taken from patent publication US9481648B2, “Kinase inhibitors” (Respivert Limited, priority 2013, dated 2016).

Columns and labels:
[1] = target: p38 MAPKα (MAPK14) (Homo sapiens (Human), UniProt Q16539); test: p38 MAPKα enzyme inhibition (FRET, Z-LYTE; Method 2); assay type: biochemical
Description: (§1) The enzyme inhibitory activities of compounds disclosed herein are determined by FRET using synthetic peptides labelled with both donor and acceptor fluorophores (Z-LYTE, Invitrogen Ltd., Paisley, UK).
The inhibitory activities of test compounds against the p38 MAPKα isoform (MAPK14: Invitrogen) are evaluated indirectly by determining the level of activation\phosphorylation of the down-stream molecule, MAPKAP-K2. The p38 MAPKα protein (80 ng/mL, 2.5 μL) is mixed with the test compound (2.5 μL of either 4 μg/mL, 0.4 μg/mL, 0.04 μg/mL or 0.004 μg/mL) for 2 hr at RT. […] The mixture is incubated for 1 hr at RT. Development reagent (protease, 5 μL) is added for 1 hr prior to detection in a fluorescence microplate reader (Vanoskan® Flash, ThermoFisher Scientific).
(§2) In all cases, the site-specific protease cleaves non-phosphorylated peptide only and eliminates the FRET signal. Phosphorylation levels of each reaction are calculated using the ratio of coumarin emission (donor) over fluorescein emission (acceptor), for which high ratios indicate high phosphorylation and low ratios indicate low phosphorylation levels.

[2] = target: c-Src (Homo sapiens (Human), UniProt P12931); test: c-Src enzyme inhibition (FRET, Z-LYTE); assay type: biochemical
Description: as §1
(§3) The relevant enzyme (3000 ng/mL or 2000 ng/mL respectively, 2.5 μL) is incubated with the test compound (either 1 μg/mL, 0.1 μg/mL, 0.01 μg/mL, or 0.001 μg/mL, 2.5 μL each) for 2 hr at RT. The FRET peptides (8 μM, 2.5 μL), and appropriate ATP solutions (2.5 μL, 800 μM for c-Src, and 60 μM ATP for Syk) are then added to the enzymes/compound mixtures and the mixture incubated for 1 hr. Development reagent (protease, 5 μL) is added for 1 hr prior to detection in a fluorescence microplate reader (Varioskan® Flash, ThermoFisher Scientific).
as §2

[3] = target: Syk (Homo sapiens (Human), UniProt P43405); test: Syk enzyme inhibition (FRET, Z-LYTE); assay type: biochemical
Description: as §1, §3, §2

[4] = target: GSK 3α (Homo sapiens (Human), UniProt P49840); test: GSK 3α enzyme inhibition (FRET, Z-LYTE; Method 2); assay type: biochemical; conditions: read-out: IC50 Values for Enzyme Inhibition GSK3α
Outline: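 Phosphorylation was taken from the donor (coumarin) to acceptor (fluorescein) emission ratio after 1 h protease development, which cleaves only unphosphorylated peptide. Before that, peptide (8 μM stock) plus ATP (40 μM stock) reacted 1 h. This followed a 105 min RT preincubation of GSK3-α with compound stocks of 10–0.01 μg/mL.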

[5] = tested on: β-catenin in d-U937 cells; test: Accumulation of β catenin in d-U937 cells (assay m); assay type: cell-based, human
Description: U937 cells, a human monocytic cell line, are differentiated into macrophage-type cells by incubation with PMA (100 ng/mL) for between 48 to 72 hr. The cells are then incubated with either final concentrations of test compound or vehicle for 18 hr. The induction of β-catenin by the test compounds is stopped by replacing the media with 4% formaldehyde solution. Endogenous […] is neutralised by incubating with quenching buffer (100 μL, 0.1% sodium azide, 1% H2O2 in PBS with 0.05% Tween-20) for 20 min. The cells are washed with washing buffer (200 μL; PBS containing 0.05% Tween-20) and incubated with blocking solution (200 μL; 5% milk in PBS) for 1 hr, re-washed with washing buffer (200 μL) and then incubated overnight with anti-β-catenin antibody solution (50 μL) in 1% BSA/PBS (BD, Oxford, UK).
After washing with washing buffer (3×200 μL; PBS containing 0.05% Tween-20), cells are incubated with a HRP-conjugated secondary antibody solution (100 μL) in 1% BSA/PBS (Dako, Cambridge, UK) and the resultant signal is determined colourimetrically (OD: 450 nm with a reference wavelength of 655 nm) using TMB substrate (50 μL; R&D Systems, Abingdon, UK). This reaction is stopped by addition of 1N H2SO4 solution (50 μL). Cells are then washed with washing buffer and 2% crystal violet solution (50 μL) is applied for 30 min. After washing with washing buffer (3×200 μL), 1% SDS (100 μL) is added to each well and the plates are shaken lightly for 1 hr prior to measuring the absorbance at 595 nm (Varioskan® Flash, Thermo-Fisher Scientific).
The measured OD450-655 readings are corrected for cell number by dividing the OD450-655 by the OD595 readings.

Sequence of c-Src (P12931 whole entry, looked up): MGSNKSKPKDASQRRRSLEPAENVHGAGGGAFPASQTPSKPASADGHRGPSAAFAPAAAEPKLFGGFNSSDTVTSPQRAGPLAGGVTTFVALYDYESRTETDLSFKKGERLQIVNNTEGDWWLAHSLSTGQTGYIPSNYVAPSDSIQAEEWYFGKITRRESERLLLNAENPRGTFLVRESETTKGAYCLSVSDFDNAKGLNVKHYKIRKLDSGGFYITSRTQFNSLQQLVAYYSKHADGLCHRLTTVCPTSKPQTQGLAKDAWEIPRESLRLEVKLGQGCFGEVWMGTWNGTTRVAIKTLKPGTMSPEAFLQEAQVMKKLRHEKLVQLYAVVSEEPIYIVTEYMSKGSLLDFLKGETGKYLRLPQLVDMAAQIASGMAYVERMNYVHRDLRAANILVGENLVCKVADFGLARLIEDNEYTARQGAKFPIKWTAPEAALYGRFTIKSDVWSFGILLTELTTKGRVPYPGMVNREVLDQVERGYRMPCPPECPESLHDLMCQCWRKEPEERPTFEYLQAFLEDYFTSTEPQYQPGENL
Sequence of GSK 3α (P49840 whole entry): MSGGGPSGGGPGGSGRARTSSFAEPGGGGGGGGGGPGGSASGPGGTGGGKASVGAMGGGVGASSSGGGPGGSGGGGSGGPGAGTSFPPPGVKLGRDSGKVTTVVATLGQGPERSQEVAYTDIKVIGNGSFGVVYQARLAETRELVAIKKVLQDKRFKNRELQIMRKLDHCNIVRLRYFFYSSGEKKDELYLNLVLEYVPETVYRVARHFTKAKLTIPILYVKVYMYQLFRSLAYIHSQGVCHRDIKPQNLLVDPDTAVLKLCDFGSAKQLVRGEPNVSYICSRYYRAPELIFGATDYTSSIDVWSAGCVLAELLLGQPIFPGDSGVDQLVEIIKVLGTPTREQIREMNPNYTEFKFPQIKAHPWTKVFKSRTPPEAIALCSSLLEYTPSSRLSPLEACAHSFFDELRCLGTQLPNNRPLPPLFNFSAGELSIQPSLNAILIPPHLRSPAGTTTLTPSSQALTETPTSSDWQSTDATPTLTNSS
Sequence of p38 MAPKα (MAPK14) (Q16539 whole entry): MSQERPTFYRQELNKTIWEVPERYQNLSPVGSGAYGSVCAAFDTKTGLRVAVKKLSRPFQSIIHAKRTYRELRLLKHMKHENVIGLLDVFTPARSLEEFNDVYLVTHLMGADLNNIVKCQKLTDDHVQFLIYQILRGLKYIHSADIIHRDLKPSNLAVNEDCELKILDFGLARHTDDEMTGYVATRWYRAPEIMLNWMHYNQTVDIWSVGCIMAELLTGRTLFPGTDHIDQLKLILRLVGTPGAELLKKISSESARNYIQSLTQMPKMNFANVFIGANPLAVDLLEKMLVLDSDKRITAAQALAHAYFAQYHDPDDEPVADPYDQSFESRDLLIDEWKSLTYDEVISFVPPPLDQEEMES

Row | SMILES | IC50 [1] | IC50 [2] | IC50 [3] | IC50 [4] | % β-catenin induction ([5]; test compound 1 μg/mL) | % β-catenin induction ([5]; test compound 5 μg/mL) | % β-catenin induction ([5]; test compound 10 μg/mL)
1 | COCCOCCOCCOc1cc(Nc2nccc(Oc3ccc(NC(=O)Nc4cc(C(C)(C)C)cc(NS(=O)(=O)N5CCOCC5)c4OC)c4ccccc34)n2)cc(OC)c1 [83(b), N-(5-(tert-butyl)-2-methoxy-3-(3-(4-((2-((3-methoxy-5-(2-(2-(2-methoxyethoxy)ethoxy)-ethoxy)phenyl)amino)pyrimidin-4-yl)oxy)naphthalen-1-yl)ureido)phenyl)morpholine-4-sulfonamide] | 246 nM | 48 nM | 802 nM | 9150 nM | −6% | −9% | −6%
2 | COc1cc(CO)cc(Nc2cc(Oc3ccc(NC(=O)Nc4cc(C(C)(C)C)cc(C(N)=O)c4OC)c4ccccc34)ccn2)c1 [84(g), 5-tert-Butyl-3-[[4-[[2-[3-(hydroxymethyl)-5-methoxyanilino]-4-pyridyl]oxy]-1-naphthyl]carbamoylamino]-2-methoxybenzamide] | 86 nM | 28 nM | 137 nM | 2280 nM | 1% | 8% | 7%
3 | COc1cc(Nc2nccc(Oc3ccc(NC(=O)Nc4cc(C(C)(C)C)cc(NS(C)(=O)=O)c4OC)c4ccccc34)n2)cc(C(=O)NCCN2CCOCC2)c1 [Example 6, 3-((4-((4-(3-(5(tert-Butyl)-2-methoxy-3-(methylsulfonamido)phenyl)ureido)naphthaen-1-yl)oxy)pyrimidin-2-yl)amino)-5-methox-N-(2-morpholinoethyl)benzamide] | 34 nM | 11 nM | 421 nM | 541 nM | 7% | 20% | 11%
4 | COCCOCCOCCNC(=O)c1cc(Nc2nccc(Oc3ccc(NC(=O)Nc4cc(C(C)(C)C)cc(NS(C)(=O)=O)c4OC)c4ccccc34)n2)cc(OC)c1 [Example 7] | 39 nM | 9 nM | 554 nM | 516 nM | 13% | 29% | 29%
5 | COCCOCCOCCOc1cc(Nc2nccc(Oc3ccc(NC(=O)Nc4cc(C(C)(C)C)cc(NS(C)(=O)=O)c4OC)c(Cl)c3Cl)n2)cc(OC)c1 [Example 10, N-(5-(tert-Butyl)-3-(3-(2,3-dichloro-4-((2-((3-methoxy-5-(2-(2-(2-methoxyethoxy)ethoxy)-ethoxy)phenyl)amino)pyrimidin-4-yl)oxy)phenyl)ureido)-2-methoxyphenyl)-methanesulfonamide] | 551 nM | 18 nM | 63 nM | 1310 nM | 12% | 42% | 39%
6 | COCCOCCOCCOc1cc(Nc2cc(Oc3ccc(NC(=O)Nc4cc(C(C)(C)C)cc(NS(C)(=O)=O)c4OC)c4ccccc34)ccn2)cc(OC)c1 [Example 11, N-(5-(tert-Butyl)-2-methoxy-3-(3-(4-((2-((3-methoxy-5-(2-(2-(2-methoxyethoxy)ethoxy)-ethoxy)phenyl)amino)pyridin-4-yl)oxy)naphthalen-1-yl)ureido)phenyl)-methanesulfonamide] | 124 nM | 21 nM | 193 nM | 12200 nM | −8% | −5% | −2%
7 | CNC(=O)c1cc(C(C)(C)C)cc(NC(=O)Nc2ccc(Oc3ccnc(Nc4cc(OC)cc(OCCOCCOCCOC)c4)n3)c3ccccc23)c1OC [Example 13, 5-(tert-Butyl)-2-methoxy-3-(3-(4-((2-((3-methoxy-5-(2-(2-(2-methoxyethoxy)ethoxy)-ethoxy)phenyl)amino)pyrimidin-4-yl)oxy)naphthalen-1-yl)ureido)-N-methylbenzamide] | 28 nM | 9 nM | 35 nM | 824 nM | 7% | 34% | 26%
8 | COc1cc(Nc2cc(Oc3ccc(NC(=O)Nc4cc(C(C)(C)C)cc(NS(C)(=O)=O)c4OC)c4ccccc34)ccn2)cc(C(=O)NCC(=O)N2CCOCC2)c1 [Example 85(a), 3-[[4-[[4-[[5-tert-Butyl-3-(methanesulfonamido)-2-methoxyphenyl]-carbamoylamino]-1-naphthyl]oxy]-2-pyridyl]amino]-5-methoxy-N-(2-morvholino-2-oxo-ethyl)benzamide] | 38 nM | 29 nM | 656 nM | 6740 nM |  |  | 

More lines, main results first:

Row | IC50 [1] | IC50 [2] | IC50 [3] | IC50 [4] | SMILES | % β-catenin induction ([5]; test compound 1 μg/mL) | % β-catenin induction ([5]; test compound 5 μg/mL) | % β-catenin induction ([5]; test compound 10 μg/mL)
9 | 77 nM | 36 nM | 125 nM | 4470 nM | COc1cc(Nc2cc(Oc3ccc(NC(=O)Nc4cc(C(C)(C)C)cc(NS(C)(=O)=O)c4OC)c4ccccc34)ccn2)cc(OCCOCCOCCO)c1 [84(e), 1-[5-tert-Butyl-3-(methanesulfonamido)-2-methoxy-phenyl]-3-[4-[[2-[3-[2-[2-(2-hydroxyethoxy)ethoxy]ethoxy]-5-methoxy-anilino]-4-pyridyl]oxy]-1-naphthyl]urea] | −1% | 5% | 7%
10 | 79 nM | 21 nM | 130 nM | 1650 nM | CNC(=O)c1cc(C(C)(C)C)cc(NC(=O)Nc2ccc(Oc3ccnc(Nc4cc(CO)cc(OC)c4)c3)c3ccccc23)c1OC [84(h), 5-tert-Butyl-3-[[4-[[2-[3-(hydroxymethyl)-5-methoxyanilino]-4-pyridyl]oxy]-1-naphthyl]carbamoylamino]-2-methoxy-N-methyl-benzamide] | −1% | 11% | 10%
11 | 118 nM | 12 nM | 51 nM | 657 nM | C#Cc1cc(Nc2nccc(Oc3ccc(NC(=O)Nc4cc(C(C)(C)C)cc(NS(C)(=O)=O)c4OC)c4ccccc34)n2)cc(C(=O)NCCN2CCOCC2)c1 [Example 1, 3-((4-((4-(3-(5-(tert-Butv)-2-methoxy-3-(methysulfonamido)phenyl)ureido)naphthalen-1-yl)oxy)pyrimidin-2-yl)amino)-5-ethynyl-N-(2-morpholinoethyl)benzamide] | 18% | 17% | 
12 | 332 nM | 67 nM | 86 nM | 3970 nM | COCCOCCOCCOc1cc(Nc2nccc(Oc3ccc(NC(=O)Nc4cc(C(C)(C)C)cc(-c5cnn[nH]5)c4OC)c4ccccc34)n2)cc(OC)c1 [Example 70, 1-(5-(tert-Butyl)-2-methoxy-3-(1H-1,2,3-triazol-5-yl)phenyl)-3-(4-((2-((3-methoxy-5-(2-(2-(2-methoxyethoxy)ethoxy)ethoxy)phenyl)amino)pyrimidin-4-yl)oxy)naphthalen-1-yl)urea] |  |  | 
